Among the data in PubChem BioAssay (NCI) are TGI values, retold here.

Test systems include 786-0 renal; COLO 205 colon; OVCAR-5 ovarian; HT29 colon; NCI-H460 lung; NCI-H226 lung; HOP-92 NSCLC; SK-MEL-28 melanoma; UACC-257 melanoma; SF-268 CNS; SNB-19 CNS.
What all share (assay): NCI tumour cell line growth inhibition, 48 h

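Cells were grown in 96-well plates and exposed to each compound for 48 hours at five concentrations; endpoints were interpolated linearly between bracketing concentrations, or set to the highest concentration if not reached. At the TGI there is no net growth.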

For the molecule `CCOC(=O)CC[C@@H](NC(=O)c1ccc(NCc2ccc3nc(OC)c(OC)nc3c2)cc1)C(=O)OCC`, the TGI was above 100 µM with 786-0 renal; 69.4 µM with COLO 205 colon; above 100 µM in the test with OVCAR-5 ovarian; above 100 µM in the test on HT29 colon; 44.3 µM in the test on NCI-H460 lung; above 100 µM with NCI-H226 lung. The TGI with HOP-92 NSCLC is 36.2 µM; with SK-MEL-28 melanoma, 22.8 µM; with UACC-257 melanoma, 31.4 µM; in the test with SF-268 CNS it was above 100 µM; in the test on SNB-19 CNS, above 100 µM.

For the molecule `OCC1CCCCN1Cc1nc2ccc(Cl)cc2[nH]1` (stereo not drawn), the TGI in the test with 786-0 renal, in the test on COLO 205 colon, with OVCAR-5 ovarian, in the test with HT29 colon, in the test on NCI-H460 lung and in the test on NCI-H226 lung was above 100 µM in each case. Also, the TGI in the test with HOP-92 NSCLC, with SK-MEL-28 melanoma, in the test with UACC-257 melanoma, in the test on SF-268 CNS and with SNB-19 CNS was above 100 µM each time.

For `CNC(=O)CNC(=O)CCC(=O)N(C)C`, the TGI in the test on 786-0 renal, in the test with COLO 205 colon, in the test on OVCAR-5 ovarian, in the test with HT29 colon, with NCI-H460 lung and in the test on NCI-H226 lung was above 100 µM throughout. Also, the TGI in the test on HOP-92 NSCLC, in the test with SK-MEL-28 melanoma, in the test on UACC-257 melanoma, in the test on SF-268 CNS and in the test with SNB-19 CNS was above 100 µM each time.

In the case of `CCOC(=O)NC(N(C)C(C(C)C)P(=O)(OCC)OCC)(C(F)(F)F)C(F)(F)F` (stereo not drawn), the TGI in the test with 786-0 renal, in the test with COLO 205 colon, in the test with OVCAR-5 ovarian, with HT29 colon, in the test with NCI-H460 lung and with NCI-H226 lung was above 100 µM each time. Also, the TGI in the test with HOP-92 NSCLC, with SK-MEL-28 melanoma, in the test with UACC-257 melanoma, in the test with SF-268 CNS and in the test on SNB-19 CNS was above 100 µM in each case.

Consider `CC1=NN(C(=O)CC(=O)Nc2cccc(Cl)c2)C(=O)C1N=Nc1ccc(S(=O)(=O)c2ccc(N=NC3C(=O)N(C(=O)CC(=O)Nc4cccc(Cl)c4)N=C3C)cc2)cc1` (stereo not drawn), for which the TGI with 786-0 renal, in the test on COLO 205 colon, in the test with OVCAR-5 ovarian, in the test with HT29 colon, in the test with NCI-H460 lung and in the test with NCI-H226 lung was above 100 µM throughout. Besides, the TGI with HOP-92 NSCLC, in the test on SK-MEL-28 melanoma, with UACC-257 melanoma, with SF-268 CNS and in the test on SNB-19 CNS was above 100 µM throughout.

For `O=[N+]([O-])/C(C(Cl)=C(Cl)Cl)=C(/Sc1ccccc1)N1CCOCC1`, the TGI in the test on 786-0 renal came out at 4.51 µM; in the test with COLO 205 colon, 11 µM; in the test with OVCAR-5 ovarian, 31 µM; in the test on HT29 colon, 26.2 µM; in the test with NCI-H460 lung, 27.1 µM; in the test on NCI-H226 lung, 26.5 µM. Further, the TGI in the test with HOP-92 NSCLC was determined as 6.27 µM; in the test on SK-MEL-28 melanoma, 17.6 µM; with UACC-257 melanoma it was 23.6 µM; in the test on SF-268 CNS it was 17 µM; in the test with SNB-19 CNS it was 20.2 µM.

With `C#CCSc1cnc2ccccc2c1Sc1c[nH]c2ccccc2c1=O`, the TGI in the test with 786-0 renal is 44.9 µM; in the test with COLO 205 colon it was above 100 µM; in the test with OVCAR-5 ovarian, above 100 µM; in the test on HT29 colon, above 100 µM; in the test with NCI-H460 lung, 59.8 µM; in the test on NCI-H226 lung, 89.9 µM. The TGI is 61.2 µM in the test on HOP-92 NSCLC; above 100 µM in the test on SK-MEL-28 melanoma; 64.4 µM in the test with UACC-257 melanoma; above 100 µM in the test with SF-268 CNS; above 100 µM in the test on SNB-19 CNS.

Consider `CCOP(=O)(OCC)C(Cc1ccccc1)N=C(c1ccccc1)c1ccccc1` (stereo not drawn), for which the TGI in the test on 786-0 renal amounted to 30.2 µM; in the test with COLO 205 colon it was 28.7 µM; in the test with OVCAR-5 ovarian, 28.1 µM; in the test with HT29 colon, 27.6 µM; in the test on NCI-H460 lung, 31.9 µM; in the test on NCI-H226 lung it was 32.9 µM. Also, the TGI was 27.5 µM with HOP-92 NSCLC; 31.3 µM in the test with SK-MEL-28 melanoma; 27.1 µM with UACC-257 melanoma; 37.6 µM in the test on SF-268 CNS; 32.3 µM with SNB-19 CNS.

For the molecule `COC(=O)c1ccc(NCC2=CC(=O)c3ccccc3C2=O)cc1`, the TGI was 43.2 µM with 786-0 renal; 31.6 µM with COLO 205 colon; 49.5 µM in the test on OVCAR-5 ovarian; above 76.4 µM with HT29 colon; 35.6 µM in the test on NCI-H460 lung; 39.2 µM in the test with NCI-H226 lung. Also, the TGI was found to be 12.3 µM with HOP-92 NSCLC; 33.8 µM in the test with SK-MEL-28 melanoma; 29.4 µM with UACC-257 melanoma; 66.2 µM in the test with SF-268 CNS; 99.7 µM in the test with SNB-19 CNS.

Take `O=C1CNc2cc(N3CCN(c4cccc(C(F)(F)F)c4)CC3)ccc2N1`: the TGI was above 100 µM with 786-0 renal; above 91.7 µM with COLO 205 colon; above 100 µM in the test on OVCAR-5 ovarian; above 100 µM with HT29 colon; above 100 µM in the test with NCI-H460 lung; above 100 µM in the test on NCI-H226 lung. In addition, the TGI in the test with HOP-92 NSCLC is above 78.8 µM; with SK-MEL-28 melanoma, above 100 µM; in the test on UACC-257 melanoma, above 100 µM; in the test with SF-268 CNS it was above 100 µM; in the test with SNB-19 CNS, above 100 µM.

For the molecule `CC(=O)O/C(=C(/C#N)C(=O)O)C1C(C(=O)O)C(c2ccccc2[N+](=O)[O-])C=C(c2ccco2)N1c1ccncc1` (stereo not drawn), the TGI with 786-0 renal came to 6.62 µM; with COLO 205 colon it was 7.82 µM; in the test on OVCAR-5 ovarian, 27.4 µM; in the test with HT29 colon, 3.16 µM; in the test with NCI-H460 lung, 19.3 µM; with NCI-H226 lung it was 18.9 µM. Besides, the TGI stood at 35.1 µM in the test on HOP-92 NSCLC; 23.7 µM with SK-MEL-28 melanoma; 12 µM in the test on UACC-257 melanoma; 25.2 µM with SF-268 CNS; 24.2 µM with SNB-19 CNS.

In the case of `O=[N+]([O-])C(=C/C1CCCCC1)/C(=C\C1CCCCC1)[N+](=O)[O-]`, the TGI in the test on 786-0 renal is 4.11 µM; in the test with COLO 205 colon, 9.29 µM; in the test on OVCAR-5 ovarian, 38.8 µM; with HT29 colon, 28.8 µM; in the test with NCI-H460 lung it was 12.5 µM; in the test with NCI-H226 lung, 17.9 µM. The TGI amounted to 20.2 µM in the test with HOP-92 NSCLC; 24.7 µM in the test with SK-MEL-28 melanoma; 23.5 µM in the test with UACC-257 melanoma; 14.7 µM with SF-268 CNS; 35.7 µM in the test with SNB-19 CNS.

For the molecule `C(/C=N/NC1=NCCN1)=N\NC1=NCCN1`, the TGI with 786-0 renal, in the test on COLO 205 colon, with OVCAR-5 ovarian, in the test on HT29 colon, in the test on NCI-H460 lung and with NCI-H226 lung was above 100 µM each time. Moreover, the TGI in the test on HOP-92 NSCLC, with SK-MEL-28 melanoma, with UACC-257 melanoma, in the test on SF-268 CNS and with SNB-19 CNS was above 100 µM throughout.

`O=C(c1ccc(Cl)cc1)N(C(=S)N1CCN(c2ccccc2)CC1)c1ccccc1`: the TGI in the test on 786-0 renal, in the test with COLO 205 colon, with OVCAR-5 ovarian, in the test on HT29 colon, with NCI-H460 lung and in the test on NCI-H226 lung was above 100 µM throughout. For the same molecule, the TGI in the test on HOP-92 NSCLC, in the test on SK-MEL-28 melanoma, with UACC-257 melanoma, in the test on SF-268 CNS and in the test with SNB-19 CNS was above 100 µM in each case.

With `COc1cc(/C=C/C(=O)O)ccc1O`, the TGI with 786-0 renal, in the test with COLO 205 colon, in the test on OVCAR-5 ovarian, with HT29 colon, in the test with NCI-H460 lung and with NCI-H226 lung was above 100 µM in each case. Moreover, the TGI in the test with HOP-92 NSCLC, in the test with SK-MEL-28 melanoma, in the test with UACC-257 melanoma, in the test on SF-268 CNS and in the test on SNB-19 CNS was above 100 µM each time.

As for `CN(C)CCCNC(=O)CNC(=O)c1cc(NC(=O)c2cc(NC(=O)c3cc(NC(=O)CCNC(=O)c4cc(NC(=O)c5cc(NC(=O)c6nccn6C)cn5C)cn4C)cn3C)cn2C)cn1C`, the TGI in the test on 786-0 renal, in the test on COLO 205 colon, with OVCAR-5 ovarian, in the test with HT29 colon, in the test on NCI-H460 lung and with NCI-H226 lung was above 100 µM each time. In addition, the TGI in the test on HOP-92 NSCLC, in the test on SK-MEL-28 melanoma, with UACC-257 melanoma, in the test on SF-268 CNS and with SNB-19 CNS was above 100 µM in each case.

Regarding `COc1ccc(CN=C2Nc3ccncc3S(=O)(=O)N2c2ccccc2)cc1`, the TGI in the test on 786-0 renal, in the test with COLO 205 colon, in the test on OVCAR-5 ovarian, in the test with HT29 colon, in the test with NCI-H460 lung and with NCI-H226 lung was above 100 µM throughout. In addition, the TGI in the test with HOP-92 NSCLC is above 100 µM; in the test on SK-MEL-28 melanoma, 87.6 µM; in the test on UACC-257 melanoma, above 100 µM; with SF-268 CNS, above 100 µM; with SNB-19 CNS it was above 100 µM.

For the molecule `CCOC(=O)c1cc2cc(CSc3ccccc3)ccc2oc1=O`, the TGI with 786-0 renal, in the test on COLO 205 colon, with OVCAR-5 ovarian, in the test with HT29 colon, with NCI-H460 lung and with NCI-H226 lung was above 100 µM in each case. In addition, the TGI with HOP-92 NSCLC, in the test on SK-MEL-28 melanoma, in the test on UACC-257 melanoma, in the test with SF-268 CNS and in the test on SNB-19 CNS was above 100 µM each time.
